Assay results published in patent EP0067897A1, “A pharmaceutical composition for use in raised intracranial pressure” (Tanabe Seiyaku Co., Ltd., priority 1981, dated 1982).

Columns and labels:
Male SD-strain rats = assay: Effect on intracranial pressure (cerebrospinal fluid pressure in the cisterna magna) in urethane-anesthetized rats after oral administration; assay type: in vivo; conditions: 8 mg/kg orally
Experimental: Male SD-strain rats weighing […] (each group consisiting of 5 rats) were fasted for about 20 hours, and anesthetized with urethane. 1-(4-acetamido-2-methoxyphenoxy)-3-[4-(3-fluorophenyl)piperazino]-2-propanol (free base) was administered orally to the rats at a dose of 8 mg/kg. Intracranial pressure (i.e., cerebrospinal fluid pressure in the cisterna magna) was continuously monitored via a cannula inserted in the cisterna magna. The cannula was connected to a transducer, and recordings were made on graph paper. The effect of said test compound on the intracranial pressure was estimated in terms of the increase or decrease in intracranial pressure, which was calculated in accordance with the following formula: [formula]

[1] = Acute toxicity after oral administration; conditions: mouse, in vivo; oral administration to male mice, estimated a week after administration
From the text: Unlike those of the hypertonic solutions of glycerol or mannitol, the therapeutic effect of the propanol derivative (I) of the present invention is not ascribable to the cerebral dehydrating effect. The propanol derivative (I) may be used for the treatment or prophylaxis of increased intracranial pressure during and after brain surgical operation. Moreover, the propanol derivative (I) may be used for improving impaired consciousness, nervous disturbance and subjective symptoms (e.g., headache, nausea, vomiting) which are attributed to the cerebral diseases such as those mentioned hereinbefore. Further, whereas it is known that cerebral edema induces an increase in intracranial pressure and increased intracranial pressure serves to cause a build-up of edema which in turn impairs cerebral circulation, the propanol derivative (I) can interrupt such vicious cycle of cerebral diseases because of its potent intracranial pressure-lowering effect and ameliorate the cerebral circulatory impairment. The toxicity of the propanol derivative (I) of the invention is low.

## COc1cc(NC(C)=O)ccc1OCC(O)CN1CCN(c2cccc(F)c2)CC1 (stereo not shown) [1-(4-acetamido-2-methoxyphenoxy)-3-[4-(3-fluorophenyl)piperazino]-2-propanol]
Male SD-strain rats; 20 minutes after administration, pre-dose pressure = 100 (70 ± 3.1 mm H2O), 5 rats
  Changes in intracranial pressure (%): 85.4%
Male SD-strain rats; 60 minutes after administration, pre-dose pressure = 100
  Changes in intracranial pressure (%): 83.5%
Male SD-strain rats; 120 minutes after administration, pre-dose pressure = 100
  Changes in intracranial pressure (%): 77.7%
Male SD-strain rats; 180 minutes after administration, pre-dose pressure = 100
  Changes in intracranial pressure (%): 76.5%
Male SD-strain rats; 240 minutes after administration, pre-dose pressure = 100
  Changes in intracranial pressure (%): 75.6%
Male SD-strain rats; 300 minutes after administration, pre-dose pressure = 100
  Changes in intracranial pressure (%): 77.9%
[1]
  LD50 at 168 h: ~1500 mg/kg
